The numbers were not newly measured in US20040265381A1, “Anti-asthmatic drug (asmakure) from indigenous herbs to cure the disease asthma” (priority 2001, published 2004), which cites them from elsewhere.

With `CCN(CC)CC#CCOC(=O)C(O)(c1ccccc1)C1CCCCC1.Cl` (stereo not drawn) [Oxybutynin, α-cyclohexyl-α-hydroxybenzeneacetic acid 4-(diethylamino)-2-butynyl ester hydrochloride], the “start of pharmacological action” value (following oral administration) was “within one hour”. Moreover, the half-life entry (in vivo) was “less than 2 hours”.
